Data: patent US9603890B2, “Methods for increasing the selective efficacy of gene therapy using CAR peptide and heparan-sulfate mediated macropinocytosis” (Vascular Biosciences, priority 2012, dated 2017)
Where two headings read alike, the source gives them in different places. Where no end group is shown, it is not given here.

Experiments:
[1] = molecular target: T1, Heparanase (EC 3.2.1.166) (Homo sapiens, UniProt Q9Y251); details: heparan sulfate moiety as substrate; cited from earlier work
T1 sequence (Q9Y251 158-543 limits assumed): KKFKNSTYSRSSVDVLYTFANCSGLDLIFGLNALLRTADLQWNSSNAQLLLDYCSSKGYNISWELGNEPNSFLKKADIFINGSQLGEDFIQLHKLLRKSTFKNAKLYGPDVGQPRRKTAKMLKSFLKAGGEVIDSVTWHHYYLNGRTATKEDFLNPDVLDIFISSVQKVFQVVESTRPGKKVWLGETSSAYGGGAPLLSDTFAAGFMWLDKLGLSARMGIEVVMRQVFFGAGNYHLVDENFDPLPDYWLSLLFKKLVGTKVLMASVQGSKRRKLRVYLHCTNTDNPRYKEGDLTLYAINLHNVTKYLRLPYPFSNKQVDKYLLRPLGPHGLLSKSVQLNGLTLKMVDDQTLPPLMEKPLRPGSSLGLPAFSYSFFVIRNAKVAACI
T1 sequence (Q9Y251 36-109 limits assumed): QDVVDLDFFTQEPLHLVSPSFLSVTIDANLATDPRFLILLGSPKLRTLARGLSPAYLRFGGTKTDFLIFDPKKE

[2] = molecular target: T2, Heparinase I (EC 4.2.2.7) (Pedobacter heparinus, UniProt Q05819); details: heparan sulfate moiety as substrate; cited from earlier work
T2 sequence (Q05819 22-384): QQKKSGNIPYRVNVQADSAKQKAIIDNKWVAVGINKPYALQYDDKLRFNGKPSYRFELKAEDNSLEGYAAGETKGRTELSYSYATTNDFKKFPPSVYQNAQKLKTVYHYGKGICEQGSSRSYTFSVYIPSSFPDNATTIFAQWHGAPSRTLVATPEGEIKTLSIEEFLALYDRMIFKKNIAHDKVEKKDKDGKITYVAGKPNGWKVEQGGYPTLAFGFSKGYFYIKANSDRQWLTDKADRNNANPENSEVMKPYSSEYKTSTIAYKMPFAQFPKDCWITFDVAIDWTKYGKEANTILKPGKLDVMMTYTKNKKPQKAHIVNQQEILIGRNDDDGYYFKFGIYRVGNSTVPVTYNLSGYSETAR

[3] = Cell internalization and tissue penetration of truncated CAR versus CAR; assay type: cell-based
[4] = tested on: rats with severe occlusive pulmonary hypertension induced by Sugen injection followed by hypoxia; assay: MFN2 adenovirus gene therapy alone or co-administered with CAR peptide in severe occlusive PAH rats; assay type: in vivo, rat
Excerpt: CAR peptide was able to exert its disease-selective adjuvant properties by allowing enhanced viral delivery and uptake of gene product (MFN2) in an animal model of severe occlusive PAH in rats. (A) Figure showing the effect of MFN2 GTx administered alone when compared to control and diseased animal not given MFN2 Gtx. Statistical significance was examined using ANOVA (see Supplement for further statistical information). (B) Change in mitofusion-2 mRNA levels relative to control. […] (D) mPAP (mmHg) levels in Sugen hypoxia rats.
Adenoviruses were used as viral delivery vectors to incorporate cDNA inserts of MFN2 into rats with severe occlusive pulmonary hypertension induced by Sugen injection followed by hypoxia (FIG. 1).
The MFN2 gene encodes the mitofusion-2 protein, which is a mitochondrial membrane protein that participates in mitochondrial fusion. Mitofusion-2 contributes to the maintenance and operation of the mitochondrial network, and is involved in the regulation of vascular smooth muscle cell (VSMC) proliferation. […] Successful delivery and uptake of the MFN2 gene via adenovirus delivery vector into diseased cells results in increased expression of the mitofusion-2 protein, regulation of VSMC proliferation, and a subsequent decrease in disease indicators. […]

[5] = tested on: animal models of pulmonary arterial hypertension (PAH); details: cited from earlier work
[6] = tested on: Chinese hamster ovary cells; details: cited from earlier work

2-O-sulfo-α-L-iduronic acid-2-deoxy-2-acetamido-α-D-glucopyranosyl [IdoA2S-GlcNS]
Heparanase cleavage (EC 3.2.1.166) [1]: No | Heparinase I cleavage (EC 4.2.2.7) [2]: Yes

CARSKNK [tCAR, truncated form of CAR]
potency for cell internalization and tissue penetration versus parent peptide CAR [3]: more potent

CARSKNKDC (also: cyclic, type not given here) [a 9 amino acid cyclic peptide …]
increase in gene therapy transfected gene expression [4]: 7 × | increase in selective vasodilation ([5]; CAR co-administered with vasodilators): approximately 2 × | increase in co-administered drug concentration ([5]; in vivo): 2 × | binding of CAR to Chinese hamster ovary cells ([6]; cells treated with heparinase I and III): greatly reduced | binding of CAR to Chinese hamster ovary cells ([6]; cells treated with heparinase I): greatly reduced
